Experimental data taken from article PMC5318888, “SAMHD1 enhances nucleoside-analogue efficacy against HIV-1 in myeloid cells” (Scientific Reports, 2017).
Where “and” joins values, the source holds several entries; their conditions need not be identical. Equal entries are not always repeated. Where two headings read alike, the source gives them in different places.

Experiments:
HIV-1-GFP = assay: microbe, parasite or virus in culture; type: cell-based
Experimental: Cells were then infected with HIV-1-GFP by spinoculation at 800 × g for 90 min in the presence of 1 μg/mL polybrene, and further incubated at 37 °C in 5% CO2 for 72 h. […] Cells were then infected with HIV-1-GFP by spinoculation at 800 × g for 90 min in the presence of 1 μg/mL polybrene, and further incubated at 37 °C in 5% CO2 for 72 h. Non-dividing U937 and THP-1 (PMA^+) cells (6 × 10^5 cells/mL) were differentiated by addition of 100 nM PMA (PMA^+) for 48 h and treated with increasing concentrations of nucleoside analogues as described above. Cells were then infected with HIV-1-GFP in the presence of 1 μg/mL polybrene and further incubated at 37 °C in 5% CO2 for 72 h. The percentage of GFP^+cells was determined by one-colour flow cytometry using a Fortessa X20 analyser (BD Biosciences) and the data analysed using the FlowJo software suite.
(§1) Non-ambiguous values were subjected to a replicate test to calculate confidence intervals of 95% (95% CI). CC50 and EC50 values were determined for at least two independent experiments for each nucleoside analogue and a selectivity index (SI) also calculated, (SI = CC50/EC50). EC50 values for each replicate were used to perform an unpaired two-tailed t-test to determine significant differences between U937 cells expressing SAMHD1 wt or HD206-7AA mutant and THP-1 cells expressing Vpx or untransduced cells. P values of <0.005 were considered statistically significant.

in vitro = type: cell-based; conditions: human
Experimental: H9, Jurkat and undifferentiated U937 and THP-1 (PMA^−) cells (6 × 10^5 cells/mL) were treated with increasing concentrations of nucleoside analogues (0–200 μM; except CFB, 0–1.6 μM) and incubated at 37 °C in 5% CO2 for 48 h. Medium was then replaced and cells were further incubated for 72 h. Non-dividing U937 and THP-1 (PMA^+) cells (6 × 10^5 cells/mL) were differentiated by addition of 100 nM phorbol-12-myristate-13-acetate (PMA^+) for 48 h and then treated with increasing concentrations of nucleoside analogues as described above. The percentage of live cells was determined by flow cytometry using Live/Dead fixable blue-fluorescent dyes (Invitrogen) and a Fortessa X20 analyser (BD Biosciences). Data were analysed using the FlowJo software suite.
as §1, with “The cytotoxic concentration of nucleoside analogue that inhibits cell viability by 50% (CC50) and the effective concentration of nucleoside analogue that inhibits infection of cells by 50% (EC50) were calculated for each independent experiment by non-linear regression using GraphPad Prism v6.00 for Windows (GraphPad Software, San Diego, CA). Non-ambiguous” for “Non-ambiguous”

[1] = Human immunodeficiency virus 1, H9, read-out: EC50 anti-HIV-1, H9 cells
[2] = Human immunodeficiency virus 1, Jurkat, read-out: EC50 anti-HIV-1, Jurkat cells

With Nc1nc2c(ncn2COCCO)c(=O)[nH]1 [ACV, Acycloguanosine] the EC50 (HIV-1-GFP; [1]) was greater than 200 µM and the EC50 (HIV-1-GFP; [2]) was greater than 200 µM.
With Nc1nc(O)c2ncn(COC(CO)CO)c2n1 [GCV, 2′-Nor-2′-deoxyguanosine] the EC50 (HIV-1-GFP; [1]) was greater than 200 µM and the EC50 (HIV-1-GFP; [2]) was greater than 200 µM.
For Cc1ccnc2c1NC(=O)c1cccnc1N2C1CC1 [NVP, Nevirapine], the “EC50 anti-HIV-1” value (HIV-1-GFP; H9 cells) was “nanomolar concentrations”, the “SI, selectivity index CC50/EC50” value (HIV-1-GFP; H9 cells) was greater than 1266 and the EC50 (HIV-1-GFP; [1]) was 0.158 µM. The EC50 (HIV-1-GFP; [2]) was 0.486 µM and the “EC50 anti-HIV-1” value (HIV-1-GFP; Jurkat cells) was “nanomolar concentrations”.
For Cc1nnc(C(=O)NC(C)(C)c2nc(C(=O)NCc3ccc(F)cc3)c(O)c(=O)n2C)o1 [RAL, Raltegravir], the “EC50 anti-HIV-1” value (HIV-1-GFP; H9 cells) was “nanomolar concentrations”, the “SI, selectivity index CC50/EC50” value (HIV-1-GFP; H9 cells) was greater than 100000 and the EC50 (HIV-1-GFP; [1]) was 0.002 µM. The EC50 (HIV-1-GFP; [2]) was 0.004 µM and the “EC50 anti-HIV-1” value (HIV-1-GFP; Jurkat cells) was “nanomolar concentrations”.
With Cc1cn([C@H]2C=C[C@@H](CO)O2)c(=O)[nH]c1=O [d4T, 2′,3′-didehydro-2′,3′-dideoxythymidine] the “SI, selectivity index CC50/EC50” value (HIV-1-GFP; H9 cells) was > 36 and > 30, the EC50 (HIV-1-GFP; [1]) was less than 10 µM and the EC50 (HIV-1-GFP; [2]) was less than 10 µM. The “SI, selectivity index CC50/EC50” value (HIV-1-GFP; Jurkat cells) was greater than 30, the EC50 (HIV-1-GFP; read-out: EC50 anti-HIV-1, H9 cells) was 5.57 µM and the EC50 (HIV-1-GFP; read-out: EC50 anti-HIV-1, Jurkat cells) was 6.56 µM. The CC50 at 48 h (in vitro) was greater than 200 µM.
